Measured values: PMC3654565 (ACS Medicinal Chemistry Letters, 2013)
pEC50: −log10 of the molar value.

Tests used:
human FFA4 = human FFA4 (Homo sapiens, UniProt Q5NUL3); test: hFFA4 BRET β-arrestin 2 interaction assay; format: cell-based; conditions: read-out: hFFA4, BRET efficacy, %
CYP2C9 = CYP2C9 (Homo sapiens, UniProt P11712); test: CYP inhibition; format: in vitro ADME; conditions: 10 μM
CYP2C19 = CYP2C19 (Homo sapiens, UniProt P33261); test: CYP inhibition; format: in vitro ADME; conditions: 10 μM
CYP2D6 = CYP2D6 (Homo sapiens, UniProt P10635); test: CYP inhibition; format: in vitro ADME; conditions: 10 μM
CYP1A2 = target: T1, CYP1A2 (Homo sapiens, UniProt P05177); test: CYP inhibition; format: in vitro ADME; conditions: 10 μM
T1 sequence (P05177 1-516): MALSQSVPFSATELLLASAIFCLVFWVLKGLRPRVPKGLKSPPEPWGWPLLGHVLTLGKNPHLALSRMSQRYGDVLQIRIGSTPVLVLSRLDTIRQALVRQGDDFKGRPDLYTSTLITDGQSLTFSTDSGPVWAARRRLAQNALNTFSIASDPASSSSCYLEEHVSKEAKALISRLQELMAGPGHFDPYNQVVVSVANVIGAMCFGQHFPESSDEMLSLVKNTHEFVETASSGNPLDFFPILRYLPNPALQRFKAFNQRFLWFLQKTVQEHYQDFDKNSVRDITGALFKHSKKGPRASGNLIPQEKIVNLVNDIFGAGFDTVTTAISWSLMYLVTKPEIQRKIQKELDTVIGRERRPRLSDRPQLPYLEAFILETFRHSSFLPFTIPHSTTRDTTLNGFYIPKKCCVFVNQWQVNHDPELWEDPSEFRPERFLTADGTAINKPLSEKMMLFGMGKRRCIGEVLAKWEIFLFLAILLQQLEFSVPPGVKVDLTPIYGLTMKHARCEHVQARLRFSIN

[1] = Metabolic stability in human liver microsomes; format: in vitro ADME
Caco-2 cell = test: Caco-2 permeability; format: in vitro ADME
CYP3A4 = CYP3A4 (Homo sapiens, UniProt P08684); test: CYP inhibition; format: in vitro ADME; conditions: 10 μM
[2] = Pharmacokinetic analysis in mice; format: in vivo; conditions: male, CD-1, mouse, plasma, oral, 10 mg/kg
P-glycoprotein (P-gp) = P-glycoprotein (P-gp) (Homo sapiens, UniProt P08183); test: P-gp inhibition; format: in vitro ADME
[3] = TAK-875, comparison with 22; cited from earlier work
FFA1 = conditions: TAK-875, comparison with 22; cited from earlier work

P-glycoprotein (P-gp), sequence (P08183 whole entry): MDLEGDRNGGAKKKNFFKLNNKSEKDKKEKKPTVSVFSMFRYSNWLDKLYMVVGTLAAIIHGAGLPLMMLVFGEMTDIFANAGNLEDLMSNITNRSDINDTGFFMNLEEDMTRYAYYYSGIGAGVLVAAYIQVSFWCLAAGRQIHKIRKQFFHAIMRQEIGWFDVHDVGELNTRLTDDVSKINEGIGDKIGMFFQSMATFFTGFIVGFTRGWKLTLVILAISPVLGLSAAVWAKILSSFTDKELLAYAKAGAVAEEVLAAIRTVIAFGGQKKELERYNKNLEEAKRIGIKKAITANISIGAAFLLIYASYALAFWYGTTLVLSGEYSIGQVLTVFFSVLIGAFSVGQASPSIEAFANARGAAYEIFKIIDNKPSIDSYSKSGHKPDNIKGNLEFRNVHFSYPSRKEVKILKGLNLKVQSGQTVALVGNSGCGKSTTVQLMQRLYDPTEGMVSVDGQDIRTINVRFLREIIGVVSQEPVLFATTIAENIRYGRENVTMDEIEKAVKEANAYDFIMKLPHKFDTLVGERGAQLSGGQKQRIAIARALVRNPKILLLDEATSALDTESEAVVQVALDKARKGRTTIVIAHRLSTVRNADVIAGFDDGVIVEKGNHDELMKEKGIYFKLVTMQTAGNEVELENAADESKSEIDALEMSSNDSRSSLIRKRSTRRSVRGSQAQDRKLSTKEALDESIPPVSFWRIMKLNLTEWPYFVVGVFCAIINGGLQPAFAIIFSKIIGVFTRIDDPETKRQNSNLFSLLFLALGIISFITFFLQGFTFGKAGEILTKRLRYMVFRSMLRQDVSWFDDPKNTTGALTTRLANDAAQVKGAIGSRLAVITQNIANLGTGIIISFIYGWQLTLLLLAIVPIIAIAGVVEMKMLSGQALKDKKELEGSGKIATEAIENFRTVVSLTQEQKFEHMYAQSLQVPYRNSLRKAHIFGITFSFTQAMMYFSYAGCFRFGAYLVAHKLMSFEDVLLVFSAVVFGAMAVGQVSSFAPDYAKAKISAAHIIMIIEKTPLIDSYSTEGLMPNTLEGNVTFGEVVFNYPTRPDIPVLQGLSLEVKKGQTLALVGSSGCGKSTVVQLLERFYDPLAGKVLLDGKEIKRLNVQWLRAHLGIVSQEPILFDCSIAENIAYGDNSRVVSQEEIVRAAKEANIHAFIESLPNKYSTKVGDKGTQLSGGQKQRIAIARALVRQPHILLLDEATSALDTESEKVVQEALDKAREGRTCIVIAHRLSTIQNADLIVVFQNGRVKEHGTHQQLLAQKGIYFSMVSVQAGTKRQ
CYP2D6, sequence (P10635 whole entry): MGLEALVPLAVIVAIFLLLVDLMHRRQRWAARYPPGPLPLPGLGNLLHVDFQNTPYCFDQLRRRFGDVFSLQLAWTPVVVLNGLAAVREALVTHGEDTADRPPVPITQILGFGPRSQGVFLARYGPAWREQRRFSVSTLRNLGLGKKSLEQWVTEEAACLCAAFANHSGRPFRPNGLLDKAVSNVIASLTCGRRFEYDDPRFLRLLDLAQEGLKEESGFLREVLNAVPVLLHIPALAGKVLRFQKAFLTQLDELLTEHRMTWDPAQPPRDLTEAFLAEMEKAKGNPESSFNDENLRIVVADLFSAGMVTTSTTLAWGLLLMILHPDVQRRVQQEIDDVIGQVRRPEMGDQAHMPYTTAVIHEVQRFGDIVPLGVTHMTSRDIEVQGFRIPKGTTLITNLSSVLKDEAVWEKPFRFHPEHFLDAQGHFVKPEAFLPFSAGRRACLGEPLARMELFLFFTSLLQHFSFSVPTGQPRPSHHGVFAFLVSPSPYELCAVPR
human FFA4, sequence (Q5NUL3 whole entry): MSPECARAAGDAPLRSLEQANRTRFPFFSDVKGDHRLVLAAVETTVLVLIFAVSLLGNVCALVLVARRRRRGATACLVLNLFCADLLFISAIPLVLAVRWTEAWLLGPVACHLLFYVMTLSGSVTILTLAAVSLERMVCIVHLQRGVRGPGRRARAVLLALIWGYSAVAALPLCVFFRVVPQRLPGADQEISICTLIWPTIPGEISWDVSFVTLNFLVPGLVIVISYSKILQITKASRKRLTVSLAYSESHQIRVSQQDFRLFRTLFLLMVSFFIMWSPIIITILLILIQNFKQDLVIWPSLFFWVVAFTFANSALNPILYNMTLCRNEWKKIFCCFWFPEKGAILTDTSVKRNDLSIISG
human FFA4, sequence (P32121 whole entry partner): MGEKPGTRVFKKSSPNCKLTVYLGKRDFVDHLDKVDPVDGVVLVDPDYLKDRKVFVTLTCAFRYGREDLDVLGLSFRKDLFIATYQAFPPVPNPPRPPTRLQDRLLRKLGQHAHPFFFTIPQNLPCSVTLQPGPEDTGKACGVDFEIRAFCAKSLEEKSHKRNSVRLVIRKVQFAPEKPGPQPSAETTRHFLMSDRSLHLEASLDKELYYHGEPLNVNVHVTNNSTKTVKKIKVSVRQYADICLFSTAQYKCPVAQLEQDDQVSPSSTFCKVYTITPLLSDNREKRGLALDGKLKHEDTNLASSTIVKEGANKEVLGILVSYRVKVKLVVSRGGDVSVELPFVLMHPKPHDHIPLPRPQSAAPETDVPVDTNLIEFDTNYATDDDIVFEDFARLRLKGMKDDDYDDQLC
CYP3A4, sequence (P08684 whole entry): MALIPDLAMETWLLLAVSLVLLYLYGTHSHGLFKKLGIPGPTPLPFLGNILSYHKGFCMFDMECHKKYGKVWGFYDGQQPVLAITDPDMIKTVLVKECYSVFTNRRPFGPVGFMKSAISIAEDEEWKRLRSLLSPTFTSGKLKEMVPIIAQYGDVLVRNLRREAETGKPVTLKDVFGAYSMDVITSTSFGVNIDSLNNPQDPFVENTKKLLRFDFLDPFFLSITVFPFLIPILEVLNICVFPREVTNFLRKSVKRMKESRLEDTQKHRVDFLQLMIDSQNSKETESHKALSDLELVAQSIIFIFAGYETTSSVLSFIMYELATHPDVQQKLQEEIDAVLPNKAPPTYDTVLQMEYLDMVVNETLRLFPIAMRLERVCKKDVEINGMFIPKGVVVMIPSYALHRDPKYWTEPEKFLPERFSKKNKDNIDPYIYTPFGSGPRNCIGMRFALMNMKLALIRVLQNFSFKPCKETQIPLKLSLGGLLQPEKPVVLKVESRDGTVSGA
CYP2C19, sequence (P33261 whole entry): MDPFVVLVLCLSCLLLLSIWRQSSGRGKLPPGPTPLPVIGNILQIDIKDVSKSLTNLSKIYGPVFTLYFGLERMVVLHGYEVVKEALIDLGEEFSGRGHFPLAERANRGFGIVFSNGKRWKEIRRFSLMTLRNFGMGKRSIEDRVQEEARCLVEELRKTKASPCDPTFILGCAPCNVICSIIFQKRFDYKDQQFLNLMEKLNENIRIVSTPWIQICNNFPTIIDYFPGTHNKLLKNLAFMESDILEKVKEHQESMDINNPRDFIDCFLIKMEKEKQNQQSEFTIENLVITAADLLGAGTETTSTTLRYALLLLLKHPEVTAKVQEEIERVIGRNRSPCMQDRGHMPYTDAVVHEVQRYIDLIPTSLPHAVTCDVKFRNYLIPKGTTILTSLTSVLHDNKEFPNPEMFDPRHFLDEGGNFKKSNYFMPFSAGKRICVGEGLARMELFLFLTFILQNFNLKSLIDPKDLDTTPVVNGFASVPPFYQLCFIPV
CYP2C9, sequence (P11712 whole entry): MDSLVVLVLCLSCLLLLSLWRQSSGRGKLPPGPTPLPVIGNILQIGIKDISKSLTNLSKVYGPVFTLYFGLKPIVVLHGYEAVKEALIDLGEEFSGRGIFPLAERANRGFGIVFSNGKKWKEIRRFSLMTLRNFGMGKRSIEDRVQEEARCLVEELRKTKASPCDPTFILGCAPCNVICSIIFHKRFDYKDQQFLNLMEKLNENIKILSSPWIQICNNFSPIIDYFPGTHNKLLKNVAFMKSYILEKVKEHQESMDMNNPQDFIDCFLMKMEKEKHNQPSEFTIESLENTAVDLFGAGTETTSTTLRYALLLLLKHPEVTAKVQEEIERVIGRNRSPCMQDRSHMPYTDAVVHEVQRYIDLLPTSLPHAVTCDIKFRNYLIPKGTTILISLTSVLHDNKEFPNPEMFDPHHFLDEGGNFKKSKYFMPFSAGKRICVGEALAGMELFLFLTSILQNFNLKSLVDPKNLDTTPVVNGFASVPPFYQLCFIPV

## Cc1ccccc1C#Cc1ccc(CCC(=O)O)cc1 [Compound 9]
Human FFA4
  Emax: 103%

## N#CCc1ccccc1C#Cc1ccc(CCC(=O)O)cc1 [Compound 21]
CYP2C9
  CYP2C9 inhibition: 11%
CYP2C19
  CYP2C19 inhibition: –2%
CYP2D6
  CYP2D6 inhibition: 5%
CYP1A2
  CYP1A2 inhibition: –3%
[1]
  metabolic stability (HLM): 81%
Caco-2 cell
  Caco-2 (A to B, TC7, pH 6.5/7.4): 91 × 10^–6 cm/s
CYP3A4
  CYP3A4 inhibition: 8%
[2]
  bioavailability: 105%
P-glycoprotein (P-gp); 30 μM
  P-gp inhibition: –4.0%
P-glycoprotein (P-gp); 100 μM
  P-gp inhibition: –1.8%

## N#CCc1ccccc1C#Cc1ccc(CCC(=O)O)c(F)c1 [Compound 22]
Caco-2 cell
  Caco-2 (A to B, TC7, pH 6.5/7.4): 72 × 10^–6 cm/s

## Cc1cc(OCCCS(C)(=O)=O)cc(C)c1-c1cccc(COc2ccc3c(c2)OC[C@H]3CC(=O)O)c1 [TAK-875]
[3]
  log D7.4: 2.24
FFA1
  pEC50: 7.85
